Reference: publication PMC10945337 (Theranostics, 2024)
Read-outs that look alike come from different tables or passages of the source.

How the values were obtained:
[1] = Whole-body planar and SPECT/CT imaging-based dosimetry of normal organs (kidneys, liver, parotid and submandibular glands); type: in vivo, human
[2] = system: tumor lesions (bone metastases or lymph node metastases); experiment: Whole-body planar and SPECT/CT imaging-based dosimetry of tumor lesions; type: in vivo, human; settings: n = 17 tumor lesions
metastases = settings: cited from earlier work
[3] = cited from earlier work
[4] = kidneys, mean ± SD, 6 mCRPC patients
[5] = liver, mean ± SD, 6 mCRPC patients
[6] = parotid gland, mean ± SD, 6 mCRPC patients
[7] = submandibular gland, mean ± SD, 6 mCRPC patients
[8] = bone metastases, ref Violet et al. [52]
[9] = lymph node metastases, ref Violet et al. [52]
[10] = all metastases, ref Okamoto et al. [53]

[^177Lu]Lu-PSMA-617
A (% injected A0), monoexponential curve-fitting parameter [1, 4]: 4.80 ± 1.94 % injected A0
Absorbed dose [1, 4]: 0.545 ± 0.231 mGy/MBq
Mean absorbed dose [1, 4]: 0.545 ± 0.231 Gy/GBq
TIAC (time-integrated activity coefficient) [1, 4]: 1.59 ± 0.68 h
λ, monoexponential curve-fitting parameter [1, 4]: 0.028 ± 0.011 h⁻¹
A (% injected A0), monoexponential curve-fitting parameter [1, 5]: 2.28 ± 0.88 % injected A0
Absorbed dose [1, 5]: 0.103 ± 0.057 mGy/MBq
TIAC (time-integrated activity coefficient) [1, 5]: 1.65 ± 1.36 h
λ, monoexponential curve-fitting parameter [1, 5]: 0.030 ± 0.009 h⁻¹
A (% injected A0), monoexponential curve-fitting parameter [1, 6]: 0.53 ± 0.20 % injected A0
Absorbed dose [1, 6]: 0.333 ± 0.194 mGy/MBq
TIAC (time-integrated activity coefficient) [1, 6]: 0.13 ± 0.09 h
λ, monoexponential curve-fitting parameter [1, 6]: 0.031 ± 0.005 h⁻¹
Individual absorbed dose ([1]; patient 1 (pre-treatment N, C, L, R), kidneys): 0.666 mGy/MBq
Individual absorbed dose ([1]; patient 1 (pre-treatment N, C, L, R), liver): 0.199 mGy/MBq
Individual absorbed dose ([1]; patient 1 (pre-treatment N, C, L, R), parotid gland): 0.398 mGy/MBq
Individual absorbed dose ([1]; patient 1 (pre-treatment N, C, L, R), submandibular gland): 0.309 mGy/MBq
Individual absorbed dose ([1]; patient 2 (pre-treatment N, C, L, A, R), kidneys): 0.492 mGy/MBq
Individual absorbed dose ([1]; patient 2 (pre-treatment N, C, L, A, R), liver): 0.138 mGy/MBq
Individual absorbed dose ([1]; patient 2 (pre-treatment N, C, L, A, R), parotid gland): 0.150 mGy/MBq
Individual absorbed dose ([1]; patient 2 (pre-treatment N, C, L, A, R), submandibular gland): 0.190 mGy/MBq
Individual absorbed dose ([1]; patient 3 (pre-treatment N, C, L, A, R), kidneys): 0.906 mGy/MBq
Individual absorbed dose ([1]; patient 3 (pre-treatment N, C, L, A, R), liver): 0.069 mGy/MBq
Individual absorbed dose ([1]; patient 3 (pre-treatment N, C, L, A, R), parotid gland): 0.146 mGy/MBq
Individual absorbed dose ([1]; patient 3 (pre-treatment N, C, L, A, R), submandibular gland): 0.112 mGy/MBq
Individual absorbed dose ([1]; patient 4 (pre-treatment N, C, L, A, R), kidneys): 0.674 mGy/MBq
Individual absorbed dose ([1]; patient 4 (pre-treatment N, C, L, A, R), liver): 0.125 mGy/MBq
Individual absorbed dose ([1]; patient 4 (pre-treatment N, C, L, A, R), parotid gland): 0.703 mGy/MBq
Individual absorbed dose ([1]; patient 4 (pre-treatment N, C, L, A, R), submandibular gland): 0.664 mGy/MBq
Individual absorbed dose ([1]; patient 5 (pre-treatment N, C, L), kidneys): 0.252 mGy/MBq
Individual absorbed dose ([1]; patient 5 (pre-treatment N, C, L), liver): 0.037 mGy/MBq
Individual absorbed dose ([1]; patient 5 (pre-treatment N, C, L), parotid gland): 0.217 mGy/MBq
Individual absorbed dose ([1]; patient 5 (pre-treatment N, C, L), submandibular gland): 0.178 mGy/MBq
Individual absorbed dose ([1]; patient 6 (pre-treatment N, C, L, A), kidneys): 0.278 mGy/MBq
Individual absorbed dose ([1]; patient 6 (pre-treatment N, C, L, A), liver): 0.049 mGy/MBq
Individual absorbed dose ([1]; patient 6 (pre-treatment N, C, L, A), parotid gland): 0.387 mGy/MBq
Individual absorbed dose ([1]; patient 6 (pre-treatment N, C, L, A), submandibular gland): 0.259 mGy/MBq
A (% injected A0), monoexponential curve-fitting parameter [1, 7]: 0.41 ± 0.26 % injected A0
Absorbed dose [1, 7]: 0.285 ± 0.180 mGy/MBq
TIAC (time-integrated activity coefficient) [1, 7]: 0.06 ± 0.05 h
λ, monoexponential curve-fitting parameter [1, 7]: 0.030 ± 0.007 h⁻¹
Absorbed dose of the tumor lesions, range ([2]; 6 mCRPC patients): 0.42 - 12.91 Gy/GBq
Mean absorbed dose of the tumor lesions ([2]; 6 mCRPC patients, mean ± SD): 2.59 ± 3.30 Gy/GBq
Effective half-life in tumor lesions (mean) ([2]; mean ± SD): 35.3 ± 6.3 h
Absorbed dose, range (metastases; [8]): 0.41-10.71 Gy/GBq
Mean absorbed dose (metastases; [8]): 5.28 Gy/GBq
Absorbed dose, range (metastases; [9]): 0.52-16.23 Gy/GBq
Mean absorbed dose (metastases; [9]): 3.91 Gy/GBq
Patients with grade 1 / 2 xerostomia ([3]; REALITY study, ref [16]): 20.9%
Patients with grade 1 / 2 xerostomia ([3]; VISION study, ref [10]): 38.8%

O=C([O-])CC[C@H](NC(=O)N[C@@H](CCCCNC(=O)CCCCCCC(=O)NCCCC[C@@H](NC(=O)[C@@H](Cc1ccccc1)NC(=O)[C@@H](Cc1ccc(O)c(I)c1)NC(=O)CC[C@H](C(=O)[O-])N1CCN(CC(=O)[O-])CCN(CC(=O)[O-])CCN(CC(=O)[O-])CC1)C(=O)[O-])C(=O)[O-])C(=O)[O-].[177Lu+3].[H+].[H+].[H+].[H+].[H+] [[^177Lu]Lu-PSMA I&T]
Absorbed dose, range (metastases; [10]): 0.22 - 12.03 Gy/GBq
Mean absorbed dose (metastases; [10]): 3.2 ± 2.6 Gy/GBq
